Assay [1] concerns adenylate cyclase (AC). Kind of assay: Reporter Gene Assay with forskolin stimulation, HEK 293-T WT. It is filed as cell-based, human. The note with it: single wells. Here is the method: (§1) Second transfection efficiency evaluation. In order to assess the second transfection efficiency, a Reporter Gene Assay (RGA) was performed. […] HEK 293-T LHCGR Luciferase cells were stimulated with forskolin. As described in literature, forskolin is a diterpene able to activate the adenylate cyclase (AC) allowing the increasing of intracellular cAMP in a wide variety of cell types. Exploiting forskolin ability, the RGA assay enables the evaluation of Reporter Gene Transcription in response to cAMP accumulation without involving the LHCG receptor. The luminescence emitted after Reporter Gene Transcription, was quantified using reagents available on the market. HEK 293-T LHCGR Luciferase and HEK 293-T without transfection were seeded in a 96 well plate and stimulated with different concentration of forskolin. After incubation, the ONE-Glo EX Luciferase assay system (Promega, E8120) was added in each well and, after 10 minutes shaking, results were acquired using the plate reader.

The test system of assay [2] is adenylate cyclase (AC). Kind of assay: Reporter Gene Assay with forskolin stimulation, HEK 293-T LHCGR Luciferase. It is filed as cell-based, human. The note with it: single wells. Here is the method:
as §1, with “reader. Second transfection stability. HEK 293-T LHCGR Luciferase were stimulated with forskolin 4 μM or left unstimulated. Results were reported as a fold change of treated cells over unstimulated control. All % CVs were calculated among fold changes obtained for the three banks and resulted below 25%. The mean and the SD of the 3 banks were calculated and used to generate the graphs in FIG. 4B.” for “reader.”
For orientation: In a reporter assay the amount or activity of a reporter protein is the signal.

Values joined by “and” are separate entries in the source; they are usually repeats but may differ in a detail not shown here. Equal entries are not always repeated.

Take `C=C[C@@]1(C)CC(=O)[C@]2(O)[C@@]3(C)[C@@H](O)CCC(C)(C)[C@@H]3[C@H](O)[C@H](OC(C)=O)[C@@]2(C)O1` [Forskolin, forskolin]: the “Luminescence values expressed as RLUs” value in assay [1] (forskolin 0.004 μM) was 92 RLUs and 61 RLUs and 62 RLUs; in assay [1] (forskolin 0.04 μM), 124 RLUs and 88 RLUs and 68 RLUs; in assay [1] (forskolin 400 μM), 227 RLUs and 130 RLUs and 124 RLUs; in assay [2] (forskolin 0.004 μM) it was 4221 RLUs and 4333 RLUs and 3899 RLUs; in assay [2] (forskolin 0.04 μM), 7547 RLUs and 6804 RLUs and 7636 RLUs; in assay [2] (forskolin 0.4 μM), 65001 RLUs and 62733 RLUs and 72165 RLUs. Besides, the “Luminescence values expressed as RLUs” value was 310180 RLUs and 299010 RLUs and 303780 RLUs in assay [2] (forskolin 4 μM); 374090 RLUs and 378740 RLUs and 387970 RLUs in assay [2] (forskolin 40 μM); 205580 RLUs and 197090 RLUs and 195210 RLUs in assay [2] (forskolin 400 μM).

The values are drawn from patent US20260234566A1, “CELL LINES FOR EXPRESSION OF LHCG RECEPTOR” (Ares Trading S.A., priority 2023, published 2026).
